# Reference: US9169254B2, “Spiroimidazolone derivative” (Chugai Seiyaku Kabushiki Kaisha, priority 2009, dated 2015)
# Target: T1, human PTH1 receptor (Homo sapiens, UniProt Q03431)
# T1 sequence (Q03431 27-593): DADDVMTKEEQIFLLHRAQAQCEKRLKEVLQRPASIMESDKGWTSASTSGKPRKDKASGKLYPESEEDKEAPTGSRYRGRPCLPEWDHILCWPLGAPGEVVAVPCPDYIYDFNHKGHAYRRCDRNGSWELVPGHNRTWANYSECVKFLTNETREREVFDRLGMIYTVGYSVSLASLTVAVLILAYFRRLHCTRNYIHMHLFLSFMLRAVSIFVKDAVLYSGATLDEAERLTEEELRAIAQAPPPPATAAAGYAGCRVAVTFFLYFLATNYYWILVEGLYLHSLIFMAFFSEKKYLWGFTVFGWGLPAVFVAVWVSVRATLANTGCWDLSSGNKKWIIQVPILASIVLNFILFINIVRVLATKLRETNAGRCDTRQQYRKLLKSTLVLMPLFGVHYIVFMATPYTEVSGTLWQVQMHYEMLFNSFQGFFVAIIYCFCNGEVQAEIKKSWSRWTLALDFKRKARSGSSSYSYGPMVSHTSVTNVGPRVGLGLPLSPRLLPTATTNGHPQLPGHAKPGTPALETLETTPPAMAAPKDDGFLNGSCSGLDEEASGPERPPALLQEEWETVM
# Assay: In vitro cAMP signal activity in HKRK-B7 cells (LLC-PK1 cells overexpressing the human PTH1 receptor)
# Format: cell-based
# Conditions: HKRK-B7 cells; compound at 1×10^−3 M; cAMP produced as percentage of that produced by hPTH(1-34) at 100 nM
row,SMILES,cAMP production activity (%)
1,"CC(=O)Nc1ccc(CCS(=O)(=O)N2CCC3(CC2)N=C(C2CCC(CCCCl)CC2)NC3=O)c(C)c1 (stereo not drawn) [Compound 1065, N-[4-(2-{2-[4-(3-chloro-propyl)-cyclohexyl]-4-oxo-1,3,8-triaza-spiro[4.5]dec-1-ene-8-sulfonyl}-ethyl)-3-methyl-phenyl]-acetamide]",83
2,"CC(=O)Nc1ccc(CCS(=O)(=O)N2CCC3(CC2)N=C([C@H]2CC[C@H](CC=C(F)F)CC2)NC3=O)c(C)c1 [Compound 1067, N-[4-(2-{2-[4-(3,3-difluoro-allyl)-cyclohexyl]-4-oxo-1,3,8-triaza-spiro[4.5]dec-1-ene-8-sulfonyl}-ethyl)-3-methyl-phenyl]-acetamide]",69
3,"CC(=O)Nc1ccc(CCS(=O)(=O)N2CCC3(CC2)N=C([C@H]2CC[C@@H](C/C=C/F)CC2)NC3=O)c(C)c1 [Compound 1070, N-[4-(2-{2-[4-((E)-3-fluoro-allyl)-cyclohexyl]-4-oxo-1,3,8-triaza-spiro[4.5]dec-1-ene-8-sulfonyl}-ethyl)-3-methyl-phenyl]-acetamide]",69
4,"CC(=O)Nc1ccc(CCS(=O)(=O)N2CCC3(CC2)N=C([C@H]2CC[C@@H](CC(F)F)CC2)NC3=O)c(C)c1 [Compound 1071, N-[4-(2-{2-[4-(2,2-difluoro-ethyl)-cyclohexyl]-4-oxo-1,3,8-triaza-spiro[4.5]dec-1-ene-8-sulfonyl}-ethyl)-3-methyl-phenyl]-acetamide]",60
5,"CC(=O)Nc1ccc(CCS(=O)(=O)N2CCC3(CC2)N=C(C2CCC(C(F)F)CC2)NC3=O)c(C)c1 (stereo not drawn) [Compound 1075, N-(4-{2-[2-(4-difluoromethyl-cyclohexyl)-4-oxo-1,3,8-triaza-spiro[4.5]dec-1-ene-8-sulfonyl]-ethyl}-3-methyl-phenyl)-acetamide]",69
6,"CC(=O)Nc1ccc(CCS(=O)(=O)N2CCC3(CC2)N=C(C2CCC(=CCC(F)F)CC2)NC3=O)c(C)c1 (stereo not drawn) [Compound 1076, N-[4-(2-{2-[4-(3,3-difluoro-propylidene)-cyclohexyl]-4-oxo-1,3,8-triaza-spiro[4.5]dec-1-ene-8-sulfonyl}-ethyl)-3-methyl-phenyl]-acetamide]",88
7,"CC(=O)Nc1ccc(CCS(=O)(=O)N2CCC3(CC2)N=C(C2CCC(CC(C)F)CC2)NC3=O)c(C)c1 (stereo not drawn) [Compound 1077, N-[4-(2-{2-[4-(2-fluoro-propyl)-cyclohexyl]-4-oxo-1,3,8-triaza-spiro[4.5]dec-1-ene-8-sulfonyl}-ethyl)-3-methyl-phenyl]-acetamide]",74
8,"CC(=O)Nc1ccc(CCS(=O)(=O)N2CCC3(CC2)N=C(C2CCC(C(C)(C)F)CC2)NC3=O)c(C)c1 (stereo not drawn) [Compound 1078, N-[4-(2-{2-[4-(1-Fluoro-1-methyl-ethyl)-cyclohexyl]-4-oxo-1,3,8-triaza-spiro[4.5]dec-1-ene-8-sulfonyl}-ethyl)-3-methyl-phenyl]-acetamide]",74
9,"CCCCCCCCCC1=NC2(CCN(S(=O)(=O)C(F)(F)Cc3c(C)cc(N(C)C(N)=O)cc3C)CC2)C(=O)N1 [Compound 1086, 1-{4-[2,2-Difluoro-2-(2-nonyl-4-oxo-1,3,8-triaza-spiro[4.5]dec-1-ene-8-sulfonyl)-ethyl]-3,5-dimethyl-phenyl}-1-methyl-urea]",151
10,"Cc1cc(N(C)C(N)=O)cc(C)c1CCS(=O)(=O)N1CCC2(CC1)N=C(c1cccc(-c3ccccc3-c3ccccc3)c1)NC2=O [Compound 1087, 1-{3,5-Dimethyl-4-[2-(4-oxo-2-[1,1′;2′,1″]terphenyl-3-yl-1,3,8-triaza-spiro[4.5]dec-1-ene-8-sulfonyl)-ethyl]-phenyl}-1-methyl-urea]",97

# The remaining lines, values ahead:
row,cAMP production activity (%),SMILES
1,73,"CC(=O)Nc1ccc(CCS(=O)(=O)N2CCC3(CC2)N=C(C2CCC(CCCF)CC2)NC3=O)c(C)c1 (stereo not drawn) [Compound 1064, N-[4-(2-{2-[4-(3-Fluoro-propyl)-cyclohexyl]-4-oxo-1,3,8-triaza-spiro[4.5]dec-1-ene-8-sulfonyl}-ethyl)-3-methyl-phenyl]-acetamide]"
2,83,"CC(=O)Nc1ccc(CCS(=O)(=O)N2CCC3(CC2)N=C(C2CCC(=CCCF)CC2)NC3=O)c(C)c1 (stereo not drawn) [Compound 1066, N-[4-(2-{2-[4-(3-Fluoro-propylidene)-cyclohexyl]-4-oxo-1,3,8-triaza-spiro[4.5]dec-1-ene-8-sulfonyl}-ethyl)-3-methyl-phenyl]-acetamide]"
3,68,"CC(=O)Nc1ccc(CCS(=O)(=O)N2CCC3(CC2)N=C([C@H]2CC[C@@H](CC=C(F)F)CC2)NC3=O)c(C)c1 [Compound 1068, N-[4-(2-{2-[4-(3,3-difluoro-allyl)-cyclohexyl]-4-oxo-1,3,8-triaza-spiro[4.5]dec-1-ene-8-sulfonyl}-ethyl)-3-methyl-phenyl]-acetamide]"
4,79,"CC(=O)Nc1ccc(CCS(=O)(=O)N2CCC3(CC2)N=C([C@H]2CC[C@@H](CC(F)(F)C(F)(F)F)CC2)NC3=O)c(C)c1 [Compound 1069, N-[3-methyl-4-(2-{4-oxo-2-[4-(2,2,3,3,3-pentafluoro-propyl)-cyclohexyl]-1,3,8-triaza-spiro[4.5]dec-1-ene-8-sulfonyl}-ethyl)-phenyl]-acetamide]"
5,54,"CC(=O)Nc1ccc(CCS(=O)(=O)N2CCC3(CC2)N=C([C@H]2CC[C@@H](CCF)CC2)NC3=O)c(C)c1 [Compound 1072, N-[4-(2-{2-[4-(2-fluoro-ethyl)-cyclohexyl]-4-oxo-1,3,8-triaza-spiro[4.5]dec-1-ene-8-sulfonyl}-ethyl)-3-methyl-phenyl]-acetamide]"
6,66,"CC(=O)Nc1ccc(CCS(=O)(=O)N2CCC3(CC2)N=C(C2CCC(F)(CCCF)CC2)NC3=O)c(C)c1 (stereo not drawn) [Compound 1073, N-[4-(2-{2-[4-fluoro-4-(3-fluoro-propyl)-cyclohexyl]-4-oxo-1,3,8-triaza-spiro[4.5]dec-1-ene-8-sulfonyl}-ethyl)-3-methyl-phenyl]-acetamide]"
7,91,"CCCC=C1CCC(C2=NC3(CCN(S(=O)(=O)CCc4ccc(NC(C)=O)cc4C)CC3)C(=O)N2)CC1 (stereo not drawn) [Compound 1079, N-(4-{2-[2-(4-Butylidene-cyclohexyl)-4-oxo-1,3,8-triaza-spiro[4.5]dec-1-ene-8-sulfonyl]-ethyl}-3-methyl-phenyl)-acetamide]"
8,81,"CC(=O)Nc1ccc(CCS(=O)(=O)N2CCC3(CC2)N=C(C2CCC(CC(F)(F)C(F)(F)F)CC2)NC3=O)c(C)c1 (stereo not drawn) [Compound 1080, N-[3-Methyl-4-(2-{4-oxo-2-[4-(2,2,3,3,3-pentafluoro-propyl)-cyclohexyl]-1,3,8-triaza-spiro[4.5]dec-1-ene-8-sulfonyl}-ethyl)-phenyl]-acetamide]"
9,53,"CCCCC#CCCCC1=NC2(CCN(S(=O)(=O)CCc3c(C)cc(N(C)C(N)=O)cc3C)CC2)C(=O)N1 [Compound 1081, 1-{3,5-Dimethyl-4-[2-(2-non-4-ynyl-4-oxo-1,3,8-triaza-spiro[4.5]dec-1-ene-8-sulfonyl)-ethyl]-phenyl}-1-methyl-urea]"
10,22,"CCCCCC#CCCC1=NC2(CCN([S@TB17](=O)(=O)CCc3c(C)cc(N(C)C(N)=O)cc3C)CC2)C(=O)N1 [Compound 1082, 1-{3,5-dimethyl-4-[2-(2-non-3-ynyl-4-oxo-1,3,8-triaza-spiro[4.5]dec-1-ene-8-sulfonyl)-ethyl]-phenyl}-1-methyl-urea]"
11,113,"CCCCCCCC#CC1=NC2(CCN([S@TB17](=O)(=O)CCc3c(C)cc(N(C)C(N)=O)cc3C)CC2)C(=O)N1 [Compound 1083, 1-{3,5-dimethyl-4-[2-(2-non-1-ynyl-4-oxo-1,3,8-triaza-spiro[4.5]dec-1-ene-8-sulfonyl)-ethyl]-phenyl}-1-methyl-urea]"
12,13,"Cc1cc(N(C)C(N)=O)cc(C)c1CC1(S(=O)(=O)N2CCC3(CC2)N=C(c2cccc(OC(F)(F)F)c2)NC3=O)CC1 [Compound 1084, 1-(3,5-Dimethyl-4-{1-[4-oxo-2-(3-trifluoromethoxy-phenyl)-1,3,8-triaza-spiro[4.5]dec-1-ene-8-sulfonyl]-cyclopropylmethyl}-phenyl)-1-methyl-urea]"
13,100,"Cc1cc(N(C)C(N)=O)cc(C)c1CC(F)(F)S(=O)(=O)N1CCC2(CC1)N=C(c1cccc(OC(F)(F)F)c1)NC2=O [Compound 1085, 1-(4-{2,2-Difluoro-2-[4-oxo-2-(3-trifluoromethoxy-phenyl)-1,3,8-triaza-spiro[4.5]dec-1-ene-8-sulfonyl]-ethyl}-3,5-dimethyl-phenyl)-1-methyl-urea]"

# Same assay, conditions: HKRK-B7 cells; compound at 1×10^−3 M; cAMP produced as percentage of that produced by hPTH(1-34) at 100 nM; 0.1 µM
row,cAMP production activity (%),SMILES
1,66,"C#C[C@H]1CC[C@@H](C2=NC3(CCN(S(=O)(=O)CCc4ccc(NC(C)=O)cc4C)CC3)C(=O)N2)CC1 [Compound 1074, N-(4-{2-[2-(4-ethynyl-cyclohexyl)-4-oxo-1,3,8-triaza-spiro[4.5]dec-1-ene-8-sulfonyl]-ethyl}-3-methyl-phenyl)-acetamide]"
